Test results published in patent US8481597B2, “Use of (-) (3-trihalomethylphenoxy) (4-halophenyl) acetic acid derivatives for treatment of insulin resistance, type 2 diabetes, hyperlipidemia and hyperuricemia” (Metabolex, Inc., priority 1999, dated 2013).
Several values for one entry are separate records, joined by “and”; a condition that tells them apart may be missing. Equal values may be shown once. Entries after “also recorded” stand apart in the source; their conditions may differ.

What was measured:
C57BL/6J ob/ob mice = experiment: Glucose and insulin lowering on daily oral administration in diabetic ob/ob mice (Example 9); format: in vivo
Description: The gavage volume was 10 ml/kg.

Zucker fa/fa rats [1] = experiment: Oral glucose challenge in Zucker fatty rats (Example 10); format: in vivo
Description: (§1) Prior to treatment, rats were assigned to 6 groups based on body weight. Each treatment group consisted of 8 rats. […] The gavage volume was 10 ml/kg. All rats received an oral glucose challenge (1.9 g/kg) 5.5 hours after the treatment and 4 hours after withdrawal of the food. Blood samples were taken at 0, 15, 30, 60, 90, 120, and 180 minutes following the glucose challenge for plasma glucose measurement. […] On day 5, rats received the intravenous insulin (0.75 U/kg) 5.5 hours after the last dose and 4 hours after withdrawal of the food. Blood samples were taken at 3, 6, 9, 12, 15 and 18 minutes following the insulin injection for plasma glucose measurement.

Zucker fa/fa rats [2] = experiment: Short insulin tolerance test in Zucker fatty rats (Example 10); format: in vivo; conditions: 50 mg/kg/day oral for 5 days
Description: as §1

[3] = tested on: Zucker diabetic fatty (ZDF) rats; experiment: Lipid lowering in Zucker Diabetic Fatty rats (Example 11); format: in vivo; conditions: for plasma cholesterol, in words: Experiment I, 13 days, racemate 50 mg/kg/day, enantiomers 25 mg/kg/day; for plasma cholesterol lowering, in words / plasma triglyceride, in words: 37.5 mg/kg/day (High dose), 37.5 mg/kg/day
Description: Male Zucker diabetic fatty (ZDF) rats were obtained from GMI Laboratories (Indianapolis, Ind.) at 9 weeks of age. Vehicle or enantiomers of halofenate administered by oral gavage on a daily basis starting at 74 days of age. Initial blood samples were obtained for analysis one day before treatment and at the indicated times in the treatment protocol. Blood was analyzed for plasma triglyceride and cholesterol by standard techniques.

ZDF rats = experiment: Plasma glucose in ZDF rats, (−) halofenate vs (+) halofenate (Example 13); format: in vivo; conditions: 50 mg/kg oral once a day for 3 days
Description: Male 8-9 week old ZDF rats were purchased from Genetic Models, Inc. (Indianapolis, Ind.). […] Rats that had 4-hour fasting plasma glucose levels between 200 and 500 mg/dL were used. […] The gavage volume was 5 ml/kg. Blood samples were taken at 5 hours post dose on day 2 and 3.

[4] = Pharmacokinetic study of (±) halofenate and (−) halofenate in SD rats (Example 14); format: in vivo; conditions: single oral (−) halofenate 50 mg/kg, Rats 8, 9, 11 individually, BQL <1.00 μg/mL
Description: Male 225-250 g SD rats were purchased from Charles River. […] A catheter was placed in the left carotid artery under sodium pentobarbital (50 mg/kg i.p.) and animals were allowed to recover for 2 days before treatment. […] The gavage volume was 5 ml/kg. Blood samples were collected at 1, 2, 4, 6, 8, 12, 24, 48, 72, 96 and 120 hours post dose. The plasma samples were analyzed for each enantiomeric acid ((−) halofenic acid and (+) halofenic acid) by a chiral specific HPLC assay, since the esters are prodrugs, which are designed to convert to their respective enantiomeric acids in vivo.

C57BL/6J db/db mice = experiment: Prevention of diabetes and alleviation of hypertriglyceridemia in db/db mice (Example 15); format: in vivo; conditions: 150 mg/kg/day in chow for 9 weeks
Description: Blood samples were taken at 8-10 AM once a week for 9 weeks under non-fasting condition. Food intake and body weight were measured every 1-3 days. Plasma glucose and triglyceride concentrations were determined colorimetrically using kits from Sigma Chemical Co (No. 315 and No. 339, St. Louis, Mo., USA). Plasma insulin levels were measured using RIA assay kit purchased from Linco Research (St. Charles, Mo.).

cyclooxygenase 1 (COX-1) = target: T1, cyclooxygenase 1 (COX-1) (Homo sapiens, UniProt P23219); experiment: COX-1 inhibition in human whole blood assay, TXB2 production (Example 19); format: cell-based
T1 construct: was conducted using fresh human blood from healthy donors; endogenous in cells; host or cells: heparinized fresh human whole blood, stimulated with calcium ionophore A23187
T1 sequence (P23219 24-599): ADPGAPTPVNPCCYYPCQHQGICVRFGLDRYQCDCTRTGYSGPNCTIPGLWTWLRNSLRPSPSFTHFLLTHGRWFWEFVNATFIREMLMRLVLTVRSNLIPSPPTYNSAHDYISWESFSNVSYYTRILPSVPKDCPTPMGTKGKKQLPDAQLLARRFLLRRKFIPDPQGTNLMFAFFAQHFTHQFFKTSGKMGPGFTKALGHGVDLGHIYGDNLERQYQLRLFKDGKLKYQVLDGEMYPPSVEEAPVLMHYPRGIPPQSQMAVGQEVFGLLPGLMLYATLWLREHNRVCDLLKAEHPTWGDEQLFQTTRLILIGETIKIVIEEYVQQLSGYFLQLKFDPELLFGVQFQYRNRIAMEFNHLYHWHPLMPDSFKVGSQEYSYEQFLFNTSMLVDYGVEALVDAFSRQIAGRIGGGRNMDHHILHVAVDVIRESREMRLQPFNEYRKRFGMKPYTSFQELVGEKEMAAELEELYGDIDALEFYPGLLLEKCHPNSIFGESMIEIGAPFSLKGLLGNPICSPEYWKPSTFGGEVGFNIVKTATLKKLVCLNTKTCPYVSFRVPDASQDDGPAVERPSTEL
Description: An assay for cyclooxygenase 1 (COX-1) inhibition by the compounds of the present invention was conducted using fresh human blood from healthy donors. […] The enzyme was activated by the commercially available calcium ionophore A23187.
This bioassay is based on the production of thromboxane B2 (TXB2) after COX-1 activation. When activated, COX-1 generates prostaglandin H2 which is then converted to thromboxane A2 (TXA2) by thromboxane synthase and then finally to thromboxane B2 by non-enzymatic […]. In addition, PGE2 levels were measured to exclude inhibition of thromboxane synthase. This assay allows discrimination between COX-1 and thromboxane synthase inhibition.
TXB2 and PGE2 were measured by commercially available immunoassay kits purchased from Assay Designs, Inc. (Ann Arbor, Mich.). All other chemicals were from Sigma except as noted. […] Immediately before use, all compounds were diluted 1:10 in RPMI-1640 medium (Gibco BRL, 11875-093) to make a 10× concentrated stock solution. The 10×RPMI-1640 stock solutions of the calcium ionophore were prepared in an identical manner. […] COX-1 was then activated by adding 25 microliters of the 10× stock solution of 25 micromolar calcium ionophore. The plates were shaken for 10 minutes at room temperature and then incubated at 37° C. for an additional 30 minutes. After these incubation times, the plates were centrifuged at 2,000 g for 5 minutes. Two microliters of plasma were taken from each reaction for the measurement of TXB2 using an enzyme immunoassay kit from Assay Designs, Inc. The PGE2 level in the same reaction was measured using a PGE2 enzyme immunoassay kit from Assay Designs, Inc.
The results of the assay are presented as the percent inhibition of COX-1 activity.

[5] = daily oral, racemate 250 mg/kg/day, enantiomers 125 and 250 mg/kg/day
[6] = Experiment II, listed as (−) enantiomer

For `CC(=O)NCCOC(=O)C(Oc1cccc(C(F)(F)F)c1)c1ccc(Cl)cc1` (single isomer, unassigned; (-)) [(−) halofenate, (−) 2-acetamidoethyl 4-chlorophenyl-(3-trifluoromethylphenoxy)acetate], the “overnight fasting plasma insulin after 5 days treatment, in words” value (C57BL/6J ob/ob mice; 125 mg/kg/day oral, ob/ob mice) was “Significantly lower plasma insulins”, the “time points after first dose with significantly reduced plasma insulin” value (C57BL/6J ob/ob mice; 125 mg/kg/day oral, ob/ob mice) was 27 h and the “overnight fasting plasma insulin after 5 days treatment, in words” value (C57BL/6J ob/ob mice; 250 mg/kg/day oral, ob/ob mice) was “Significantly lower plasma insulins”. For the same molecule, the “time points after first dose with significantly reduced plasma glucose” value (C57BL/6J ob/ob mice; 250 mg/kg/day oral, ob/ob mice) was 3 h, the “time points after first dose with significantly reduced plasma insulin” value (C57BL/6J ob/ob mice; 250 mg/kg/day oral, ob/ob mice) was 27 h and 30 h and the “plasma glucose following an overnight fast after 5 days treatment” value (C57BL/6J ob/ob mice; 250 mg/kg/day oral, ob/ob mice, control 185.4±12.3) was 127.3 ± 8.0 mg/dL. For the same molecule, the “plasma glucose relative to control animals, in words” value (C57BL/6J ob/ob mice; [5]) was “Significant decreases in glucose levels”, the “plasma insulin relative to vehicle control, in words” value (C57BL/6J ob/ob mice; [5]) was “insulins were lower” and the “incremental glucose area under the curve (AUC) relative to vehicle control, in words” value (Zucker fa/fa rats [1]; racemate 100 mg/kg, enantiomers 50 and 100 mg/kg) was “significant reductions in the glucose area; also recorded: Significant changes (p<0.05)”. For the same molecule, the “plasma glucose after oral glucose challenge, in words” value (Zucker fa/fa rats [1]; single oral dose 100 mg/kg 5.5 hours before challenge) was “greatest degree of glucose-lowering of all the treated animals”, the “plasma glucose after oral glucose challenge, in words” value (Zucker fa/fa rats [1]; single oral dose 5.5 hours before challenge, racemate 100 mg/kg, enantiomers 50 and 100 mg/kg) was “most effective in lowering the glucose; also recorded: lower glucose levels that persisted at 90-120 minutes” and the “insulin sensitivity (slope of decline in glucose after i.v. insulin), in words” value (Zucker fa/fa rats [2]) was “improved significantly; also recorded: significantly more insulin sensitive”. For the same molecule, the “plasma cholesterol, in words” value [3] was “significant decrease in plasma cholesterol”, the “plasma cholesterol, in words” value ([3]; listed as (−) enantiomer) was “plasma cholesterol declined with treatment; also recorded: most active of the species tested” and the “days of treatment with significantly lower plasma cholesterol vs control” value ([3]; Experiment II, 12.5 mg/kg/day (Low dose)) was 7 days. For the same molecule, the “plasma cholesterol lowering, in words” value ([3]; Experiment II) was “much greater decline in plasma cholesterol”, the “plasma triglyceride, in words” value ([3]; Experiment II, listed as (−) enantiomer of halofenate) was “greater magnitude” and the “plasma cholesterol lowering, in words” value [3, 6] was “greatest extent of cholesterol lowering”. The “plasma triglyceride, in words” value [3, 6] was “lowest triglyceride levels of all the treatment groups; also recorded: significant lowering of plasma triglyceride”, the “plasma glucose concentrations compared to vehicle-treated animals, in words” value (ZDF rats) was “significantly reduced plasma glucose concentrations” and the “Plasma concentration of (+) halofenic acid” value ([4]; time 0 hour) was “BQL”. The “Plasma concentration of (−) halofenic acid” value ([4]; time 0 hour) was “BQL”, the “Plasma concentration of (+) halofenic acid” value ([4]; time 1 hour) was “BQL” and the “Plasma concentration of (+) halofenic acid” value ([4]; time 2 hours) was “BQL”. The “Plasma concentration of (+) halofenic acid” value ([4]; time 4 hours) was “BQL”, the “Plasma concentration of (+) halofenic acid” value ([4]; time 6 hours) was “BQL” and the “Plasma concentration of (+) halofenic acid” value ([4]; time 8 hours) was “BQL”. For the same molecule, the “Plasma concentration of (+) halofenic acid” value ([4]; time 72 hours) was “BQL”, the “Plasma concentration of (+) halofenic acid” value ([4]; time 96 hours) was “BQL” and the “Plasma concentration of (+) halofenic acid” value ([4]; time 120 hours) was “BQL”. The “increase of plasma glucose levels with age, in words” value (C57BL/6J db/db mice) was “prevented or significantly delayed”, the “plasma insulin concentration, in words” value (C57BL/6J db/db mice) was “maintained the plasma insulin concentration” and the “plasma triglyceride concentration, in words” value (C57BL/6J db/db mice) was “alleviated the increase of plasma triglyceride concentration; also recorded: alleviated hyperlipidemia”. The IC50 (cyclooxygenase 1 (COX-1); heparinized fresh human blood, calcium ionophore A23187, TXB2 readout, read-out: IC50, inhibition of the COX-1 enzyme in blood) was over 3 mM and the “inhibition of COX-1, in words” value (cyclooxygenase 1 (COX-1); human whole blood assay) was “substantially weaker and ineffective inhibitor of the COX-1 enzyme; also recorded: much less effective than the racemate in inhibiting COX-1”.
